Results as given in patent US10292393B2, “Mitigation of alternate bearing” (The Regents of the University of California, priority 2009, dated 2019).
Marks after values point to notes of the source that are not given here.

How the values were obtained:
[1] = test system: on-crop ‘Nules’ Clementine mandarin trees; experiment: Trunk injections, spring bloom of on-crop mandarin trees; assay type: in vivo; settings: trunk injection 1 g per tree, counted at spring bloom
Source text: This example describes the mitigation of alternate bearing in ‘Nules’ Clementine mandarin trees achieved via trunk injection of adenosine in a composition containing the auxin transport inhibitor TIBA. On-crop ‘Nules’ Clementine mandarin trees received trunk injections of the following compounds listed in Table 1-1: TIBA (2,3,5-triiodobenzoic acid) (Sigma Chemical); 6-BA (6-benzyladenine) (Sigma Chemical); GA3 (PROGIBB® 40%, Valent BioSciences Corp.); and Ado (9-beta-D-adenosine) (Sigma Chemical, Catalog No. A9251) alone or in combination with TIBA. Each material was supplied at the rate of 1 g per tree dissolved in 50-60 ml distilled water using two plastic syringes per tree at each application time. Application times were timed (1) to stimulate summer shoot growth by overcoming correlative inhibition (July) and (2) to overcome inhibition of spring bud break (January). Thus, trees were treated in July alone or in July and January. There was also a treatment in which the apical three nodes of each shoot were removed to release the lateral buds from the dominance of the apical bud to promote summer vegetative shoot growth. The treatments included untreated on-crop control trees and untreated off-crop control trees. The experimental design was a randomized complete block with 5 individual tree replications per treatment with 13 treatments. For each tree, branches (12 inches long), 3 with fruit and 1 branch without fruit in each of the four tree quadrants, were tagged (off-crop control trees were tagged 3 without fruit and 1 with fruit). At the end of September and December, the number and length of new vegetative shoots were quantified to determine the capacity of treatments to overcome inhibition of buds that produce the summer and fall flush shoots, respectively.

[2] = test system: ‘Fina Sodea’ Clementine mandarin trees
[3] = test system: on-crop ‘Hass’ avocado trees; experiment: Trunk injections, spring bloom and yield of on-crop avocado trees; assay type: in vivo, ‘Hass’ avocado (Persea americana cv. Hass); settings: trunk injection 1 g/tree, Jan; for Floral (with fruit): branches with fruit; for Floral (w/o fruit): branches without fruit; for Fruit yield: putative off-crop following the on-crop; for Determinate floral shoots / Floral shoots / Indeterminate floral shoots: spring bloom
Protocol: This example describes the mitigation of alternate bearing in ‘Hass’ avocado trees achieved via trunk injection of adenosine and plant growth regulators. The following treatments were injected (1 g/tree) in mid-January into the trunk of on-crop ‘Hass’ avocado trees in a commercial orchard in Irvine, Calif.: (1) 9-beta-D-adenosine (Sigma Chemical, Catalog No. A9251); (2) 6-BA (Sigma Chemical); (3) GA3 (PROGIBB® 40%, Valent BioSciences Corp.); (4) TIBA (Sigma Chemical); and (5) TIBA plus adenosine. Each material was supplied at the rate of 1 g per tree dissolved in 50-60 ml distilled water using two plastic syringes per tree. There were five individual tree replicates per treatment, including (6) untreated on-crop control trees. For each tree, branches (12 inches long), 1 with fruit and 1 branch without fruit in each of the four tree quadrants, were tagged.

mandarins = settings: cited from earlier work
[4] = 3-year cumulative, 25 mg/L in 250 gallons water per acre, once at maximum peel thickness
[5] = 3-year cumulative, jumbo (63.51-69.85 mm)
[6] = 3-year cumulative, large (57.16-63.50 mm)
[7] = 3-year cumulative, mammoth (69.86-76.20 mm)
[8] = 3-year cumulative, medium (50.81-57.15 mm)
[9] = 3-year cumulative, small (44.45-50.80 mm)

| Structure (SMILES) | Floral on Spring shoots ([1]; Jul + Jan) | Floral on Summer-Fall shoots ([1]; Jul + Jan) | Floral shoots ([1]; Jul + Jan) | Leafless Floral shoots ([1]; Jul + Jan) | Leafy Floral shoots ([1]; Jul + Jan) | Floral on Spring shoots ([1]; July) | Floral on Summer-Fall shoots ([1]; July) | Floral shoots ([1]; July) | Leafless Floral shoots ([1]; July) | Leafy Floral shoots ([1]; July) | Floral (with fruit) [3] | Floral (w/o fruit) [3] | Fruit yield [3] | Determinate floral shoots [3] | Floral shoots [3] | Indeterminate floral shoots [3] | further results |
| --- | --- | --- | --- | --- | --- | --- | --- | --- | --- | --- | --- | --- | --- | --- | --- | --- | --- |
| Nc1ncnc2c1ncn2[C@@H]1O[C@H](CO)[C@@H](O)[C@H]1O [Ado, 9-beta-D-adenosine] | 5 bc No. of shoots per 100 nodes | 16 No. of shoots per 100 nodes | 12 No. of shoots per 100 nodes | 0 No. of shoots per 100 nodes | 12 No. of shoots per 100 nodes | 2 bc No. of shoots per 100 nodes | 14 No. of shoots per 100 nodes | 10 No. of shoots per 100 nodes | 2 No. of shoots per 100 nodes | 8 No. of shoots per 100 nodes | 8 No. of shoots per 100 nodes | 10 No. of shoots per 100 nodes | 220 No. per tree | 3 ab No. of shoots per 100 nodes | 10 ab No. of shoots per 100 nodes | 7 No. of shoots per 100 nodes | Quantity of fruit, Total [2, 4]: 1529.3^y fruit no./tree; Yield of fruit, Total [2, 4]: 126.30^y kg/tree; Quantity of fruit, Colossal ([2]; 3-year cumulative, colossal (76.21-82.55 mm)): 5.64 fruit no./tree; Quantity of fruit, Jumbo [2, 5]: 128.25 a fruit no./tree; Yield of fruit, Jumbo [2, 5]: 15.42 a kg/tree; Quantity of fruit, Large [2, 6]: 360.93 a fruit no./tree; Yield of fruit, Large [2, 6]: 34.67 a kg/tree; Quantity of fruit, Mammoth [2, 7]: 22.89 fruit no./tree; Yield of fruit, Mammoth [2, 7]: 3.52 kg/tree; Quantity of fruit, Medium [2, 8]: 497.05 fruit no./tree; Yield of fruit, Medium [2, 8]: 37.00 kg/tree; Yield of fruit, Colossal ([2]; 3-year cumulative, packing carton size colossal (76.21-82.55 mm)): 1.04 kg/tree; Quantity of fruit, Small [2, 9]: 417.12 fruit no./tree; Yield of fruit, Small [2, 9]: 23.58 kg/tree; Quantity of fruit, Ma + J + L ([2]; 3-year cumulative, sum of mammoth, jumbo and large): 512.07 a fruit no./tree; Yield of fruit, Ma + J + L ([2]; 3-year cumulative, sum of mammoth, jumbo and large (57.16-76.20 mm)): 53.60 kg/tree; Effects on mandarin fruit quality ([2]; in vivo): did not have negative effects; Net increase in total yield ([2]; versus control, numerical (non-significant)): 6,799 lbs fruit/200 trees/acre; Net increase in 3-year cumulative yield of commercially valuable large fruit (57.16-76.20 mm in diameter) ([2]; versus control, statistically significant): 4,735 lbs/200 trees/acre |
| C=C1C[C@]23C[C@@]1(O)CC[C@H]2[C@@]12C=C[C@H](O)[C@@](C)(C(=O)O1)[C@H]2[C@@H]3C(=O)O [GA3, gibberellic acid] | 0 c No. of shoots per 100 nodes | 2 No. of shoots per 100 nodes | 1 No. of shoots per 100 nodes | 0 No. of shoots per 100 nodes | 1 No. of shoots per 100 nodes | 0 c No. of shoots per 100 nodes | 4 No. of shoots per 100 nodes | 3 No. of shoots per 100 nodes | 0 No. of shoots per 100 nodes | 3 No. of shoots per 100 nodes | 6 No. of shoots per 100 nodes | 8 No. of shoots per 100 nodes | 194 No. per tree | 2 b No. of shoots per 100 nodes | 7 b No. of shoots per 100 nodes | 6 No. of shoots per 100 nodes | Effect on total number of fruit per tree (mandarins; light crop year (approximately 550 fruit per tree), four applications from 60% bloom, 15 or 25 mg GA3/L): successfully increase the total number of fruit per tree; Effect on total yield and yield of large size fruit (mandarins; on-crop years (approximately 1200 fruit per tree)): either reduced both total yield and yield of commercially valuable large size fruit (packing carton sizes large, jumbo and mammoth) or had no effect |
| O=C(O)c1cc(I)cc(I)c1I [TIBA, 2,3,5-triiodobenzoic acid] | 5 bc No. of shoots per 100 nodes | 26 No. of shoots per 100 nodes | 18 No. of shoots per 100 nodes | 3 No. of shoots per 100 nodes | 15 No. of shoots per 100 nodes | 3 bc No. of shoots per 100 nodes | 27 No. of shoots per 100 nodes | 19 No. of shoots per 100 nodes | 5 No. of shoots per 100 nodes | 13 No. of shoots per 100 nodes | 11 No. of shoots per 100 nodes | 8 No. of shoots per 100 nodes | 478 No. per tree | 1 b No. of shoots per 100 nodes | 9 b No. of shoots per 100 nodes | 8 No. of shoots per 100 nodes |  |
